Test results from patent publication US6476030B1, “Pyrazolo-triazine derivatives as ligands for GABA receptors” (Merck Sharp & Dohme Ltd., priority 1998, dated 2002).

melting point | SMILES
176 °C | Cn1ncnc1COc1nn2c(-c3ccccc3F)nncc2c1-c1cccc(F)c1F [Example 16, 3-(2,3-Difluorophenyl)-7-(2-fluorophenyl)2-(2-methyl-2H-[1,2,4]triazol-3-ylmethoxy)pyrazolo[1,5-d][1,2,4]triazine]
215 to 219 °C | Cn1ncnc1COc1nn2c(-c3ccccc3F)nncc2c1Br [Example 17, 3-Bromo-7-(2-fluorophenyl)-2-(2-methyl-2H-[1,2,4]triazol-3-ylmethoxy)pyrazolo[1,5-d][1,2,4]triazine]
152 to 155 °C | Cn1ncnc1COc1nn2c(-c3ccccc3F)nncc2c1-c1cccc(C(F)(F)F)c1 [Example 18, 7-(2-Fluorophenyl)-2-(2-methyl-2H-[1,2,4]triazol-3-ylmethoxy)-3-[3-(trifluoromethyl)phenyl]pyrazolo[1,5-d][1,2,4]triazine]
171 to 173 °C | Cn1ncnc1COc1nn2c(-c3ccccc3F)nncc2c1-c1cc(F)cc(F)c1 [Example 20, 3-(3,5-Difluorophenyl)-7-(2-fluorophenyl)-2-(2-methyl-2H-[1,2,4]triazol-3-ylmethoxy)pyrazolo[1,5-d][1,2,4]triazine]
144 °C | Cn1ncnc1COc1nn2c(-c3cc(F)ccc3F)nncc2c1C(C)(C)C [Example 21, 7-(2,5-Difluorophenyl)-3-(1,1-dimethylethyl)-2-(2-methyl-2H-[1,2,4]triazol-3-ylmethoxy)pyrazolo[1,5-d][1,2,4]triazine]
108 °C | CCn1ncnc1COc1nn2c(-c3cc(F)ccc3F)nncc2c1C(C)(C)C [Example 22, 7-(2,5-Difluorophenyl)-3-(1,1-dimethylethyl)-2-(2-ethyl-2H-[1,2,4]triazol-3-ylmethoxy)pyrazolo[1,5-d][1,2,4]triazine]
128 °C | Cn1ncnc1COc1nn2c(-c3ccccc3F)nncc2c1C(C)(C)C [Example 24, 3-(1,1-Dimethylethyl)-7-(2-fluorophenyl)-2-(2-methyl-2H-[1,2,4]triazol-3-ylmethoxy)pyrazolo[1,5-d][1,2,4]triazine]
105 °C | CCn1ncnc1COc1nn2c(-c3ccccc3F)nncc2c1C(C)(C)C [Example 25, 3-(1,1-Dimethylethyl)-2-(2-ethyl-2H-[1,2,4]triazol-3-ylmethoxy)-7-(2-fluorophenyl)pyrazolo[1,5-d][1,2,4]triazine]
93 °C | CCCn1ncnc1COc1nn2c(-c3ccccc3F)nncc2c1C(C)(C)C [Example 26, 3-(1,1-Dimethylethyl)-7-(2-fluorophenyl)-2-(2-propyl-2H-[1,2,4]triazol-3-ylmethoxy)pyrazolo[1,5-d][1,2,4]triazine]
42 °C | CCn1ncnc1COc1nn2c(-c3c(F)ccc(F)c3F)nncc2c1C(C)(C)C [Example 29, 3-(1,1-Dimethylethyl)-2-(2-ethyl-2H-[1,2,4]triazol-3-ylmethoxy)-7-(2,3,6-trifluorophenyl)pyrazolo[1,5-d][1,2,4]triazine]
163 °C | CC(C)n1ncnc1COc1nn2c(-c3cc(F)ccc3F)nncc2c1C(C)(C)C [Example 30, 7-(2,5-Difluorophenyl)-3-(1,1-dimethylethyl)-2-(2-isopropyl-2H-[1,2,4]triazol-3-ylmethoxy)pyrazolo[1,5-d][1,2,4]triazine]
179 to 180 °C | Cn1ncnc1COc1nn2c(-c3cnccn3)nncc2c1-c1ccccc1F [Example 31, 3-(2-Fluorophenyl)-2-(2-methyl-2H-[1,2,4]triazol-3-ylmethoxy)-7-(pyrazin-2-yl)pyrazolo[1,5-d][1,2,4]triazine]
85 to 86 °C | CCn1ncnc1COc1nn2c(-c3cc(F)ccc3F)nncc2c1C(C)(C)CC [Example 33, 7-(2,5-Difluorophenyl)-3-(1,1-dimethylpropyl)-2-(2-ethyl-2H-[1,2,4]triazol-3-ylmethoxy)pyrazolo[1,5-d][1,2,4]triazine]
89 to 91 °C | CCC(C)(C)c1c(OCc2ncnn2C)nn2c(-c3ccccc3F)nncc12 [Example 34, 3-(1,1-Dimethylpropyl)-7-(2-fluorophenyl)-2-(2-methyl-2H-[1,2,4]triazol-3-ylmethoxy)pyrazolo[1,5-d][1,2,4]triazine]
181 to 183 °C | Cn1ncnc1COc1nn2c(-c3ccccc3F)nncc2c1-c1cccnc1 [Example 35, 7-(2-Fluorophenyl)-2-(2-methyl-2H-[1,2,4]triazol-3-ylmethoxy)-3-(pyridin-3-yl)pyrazolo[1,5-d][1,2,4]triazine]
204 to 206 °C | Cn1ncnc1COc1nn2c(-c3ccco3)nncc2c1-c1ccccc1F [Example 36, 3-(2-Fluorophenyl)-7-(furan-2-yl)-2-(2-methyl-2H-[1,2,4]triazol-3-ylmethoxy)pyrazolo[1,5-d][1,2,4]triazine]
197 °C | Cn1ncnc1COc1nn2c(-c3ccc(F)cc3)nncc2c1C(C)(C)C [Example 37, 3-(1,1-Dimethylethyl)-7-(4-fluorophenyl)-2-(2-methyl-2H-[1,2,4]triazol-3-ylmethoxy)pyrazolo[1,5-d][1,2,4]triazine]
190 °C | CCn1ncnc1COc1nn2c(-c3ccc(F)cc3)nncc2c1C(C)(C)C [Example 38, 3-(1,1-Dimethylethyl)-2-(2-ethyl-2H-[1,2,4]triazol-3-ylmethoxy)-7-(4-fluorophenyl)pyrazolo[1,5-d][1,2,4]triazine]

melting point | SMILES
154 °C | CCCn1ncnc1COc1nn2c(-c3ccc(F)cc3)nncc2c1C(C)(C)C [Example 39, 3-(1,1-Dimethylethyl)-7-(4-fluorophenyl)-2-(2-propyl-2H-[1,2,4]triazol-3-ylmethoxy)pyrazolo[1,5-d][1,2,4]triazine]
89 to 92 °C | CCn1ncnc1COc1nn2c(-c3ccccc3F)nncc2c1C(C)(C)CC [Example 40, 3-(1,1-Dimethylpropyl)-2-(2-ethyl-2H-[1,2,4]triazol-3-ylmethoxy)-7-(2-fluorophenyl)pyrazolo[1,5-d][1,2,4]triazine]
191 °C | Cn1ncnc1COc1nn2c(-c3ccc(F)cc3)nncc2c1-c1ccccc1F [Example 41, 3-(2-Fluorophenyl)-7-(4-fluorophenyl)-2-(2-methyl-2H-[1,2,4]-triazol-3-ylmethoxy)pyrazolo[1,5-d][1,2,4]triazine]
122 to 125 °C | CCC(C)(C)c1c(OCc2ncnn2C)nn2c(-c3c(F)ccc(F)c3F)nncc12 [Example 43, 3-(1,1-Dimethylpropyl)-2-(2-methyl-2H-[1,2,4]triazol-3-ylmethoxy)-7-(2,3,6-trifluorophenyl)pyrazolo[1,5-d][1,2,4]triazine]
164 to 166 °C | Cn1ncnc1COc1nn2c(-c3cccnc3)nncc2c1-c1ccccc1F [Example 45, 3-(2-Fluorophenyl)-2-(2-methyl-2H-[1,2,4]triazol-3-ylmethoxy)-7-(pyridin-3-yl)pyrazolo[1,5-d][1,2,4]triazine]
214 to 217 °C | CCn1ncnc1COc1nn2c(-c3ccccc3F)nncc2c1-c1ccncc1 [Example 46, 2-(2-Ethyl-2H-[1,2,4]triazol-3-ylmethoxy)-7-(2-fluorophenyl)-3-(pyridin-4-yl)pyrazolo[1,5-d][1,2,4]triazine]
179 °C | CCn1ncnc1COc1nn2c(-c3ccc(F)cc3)nncc2c1-c1ccccc1F [Example 47, 2-(2-Ethyl-2H-[1,2,4]triazol-3-ylmethoxy)-3-(2-fluorophenyl)-7-(4-fluorophenyl)pyrazolo[1,5-d][1,2,4]triazine]
148 °C | CCCn1ncnc1COc1nn2c(-c3ccc(F)cc3)nncc2c1-c1ccccc1F [Example 48, 3-(2-Fluorophenyl)-7-(4-fluorophenyl)-2-(2-propyl-2H-[1,2,4]triazol-3-ylmethoxy)pyrazolo[1,5-d][1,2,4]triazine]
163 °C | Cn1ncnc1COc1nn2c(-c3c(F)cccc3F)nncc2c1-c1ccccc1F [Example 49, 7-(2,6-Difluorophenyl)-3-(2-fluorophenyl)-2-(2-methyl-2H-[1,2,4]triazol-3-ylmethoxy)pyrazolo[1,5-d][1,2,4]triazine]
169 to 170 °C | Cn1ncnc1COc1nn2c(-c3cccc(F)c3)nncc2c1-c1ccccc1F [Example 51, 3-(2-Fluorophenyl)-7-(3-fluorophenyl)-2-(2-methyl-2H-[1,2,4]triazol-3-ylmethoxy)pyrazolo[1,5-d][1,2,4]triazine]
164 to 166 °C | Cn1ncnc1COc1nn2c(-c3ccc(F)cc3F)nncc2c1-c1ccccc1F [Example 52, 7-(2,4-Difluorophenyl)-3-(2-fluorophenyl)-2-(2-methyl-2H-[1,2,4]triazol-3-ylmethoxy)pyrazolo[1,5-d][1,2,4]triazine]
186 to 187 °C | Cn1ncnc1COc1nn2c(-c3ccccc3F)nncc2c1-c1ccccn1 [Example 53, 7-(2-Fluorophenyl)-2-(2-methyl-2H-[1,2,4]triazol-3-ylmethoxy)-3-(pyridin-2-yl)pyrazolo[1,5-d][1,2,4]triazine]
196 to 197 °C | Cn1ncnc1COc1nn2c(-c3ccccc3F)nncc2c1-c1cccs1 [Example 54, 7-(2-Fluorophenyl)-2-(2-methyl-2H-[1,2,4]triazol-3-ylmethoxy)-3-(thien-2-yl)pyrazolo[1,5-d][1,2,4]triazine]
188 to 190 °C | Cn1ncnc1COc1nn2c(-c3ccccc3F)nncc2c1-c1ccco1 [Example 55, 7-(2-Fluorophenyl)-3-(furan-2-yl)-2-(2-methyl-2H-[1,2,4]triazol-3-ylmethoxy)pyrazolo[1,5-d][1,2,4]triazine]
118 °C | Cn1ncnc1COc1nn2c(-c3ccc(F)cc3F)nncc2c1C(C)(C)C [Example 56, 7-(2,4-Difluorophenyl)-3-(1,1-dimethylethyl)-2-(2-methyl-2H-[1,2,4]triazol-3-ylmethoxy)pyrazolo[1,5-d][1,2,4]triazine]
145 °C | CCn1ncnc1COc1nn2c(-c3ccc(F)cc3F)nncc2c1C(C)(C)C [Example 57, 7-(2,4-Difluorophenyl)-3-(1,1-dimethylethyl)-2-(2-ethyl-2H-[1,2,4]triazol-3-ylmethoxy)pyrazolo[1,5-d][1,2,4]triazine]
164 °C | CCn1ncnc1COc1nn2c(-c3ccccc3F)nncc2c1-c1ccccc1F [Example 58, 2-(2-Ethyl-2H-[1,2,4]triazol-3-ylmethoxy)-3,7-bis(2-fluorophenyl)-pyrazolo[1,5-d][1,2,4]triazine]
